Results from patent US20230074252A1, “DOSAGES AND METHODS FOR TREATING PULMONARY ARTERIAL HYPERTENSION WITH RODATRISTAT” (Altavant Sciences GmbH, priority 2020, published 2023).
Where two headings read alike, the source gives them in different places.

Legend:
Format in all cases: in vitro ADME
CYP3A4 = CYP3A4 (Homo sapiens, UniProt P08684); test: In vitro CYP substrate assessment (victim potential)
BCRP = molecular target: T1, BCRP (Homo sapiens, UniProt Q9UNQ0); test: Transporter inhibition, transporter-expressing in vitro system; details: for Potential for interaction? (transporter inhibitor), BCRP: predicted @ 600 mg BID
T1 sequence (Q9UNQ0 1-655): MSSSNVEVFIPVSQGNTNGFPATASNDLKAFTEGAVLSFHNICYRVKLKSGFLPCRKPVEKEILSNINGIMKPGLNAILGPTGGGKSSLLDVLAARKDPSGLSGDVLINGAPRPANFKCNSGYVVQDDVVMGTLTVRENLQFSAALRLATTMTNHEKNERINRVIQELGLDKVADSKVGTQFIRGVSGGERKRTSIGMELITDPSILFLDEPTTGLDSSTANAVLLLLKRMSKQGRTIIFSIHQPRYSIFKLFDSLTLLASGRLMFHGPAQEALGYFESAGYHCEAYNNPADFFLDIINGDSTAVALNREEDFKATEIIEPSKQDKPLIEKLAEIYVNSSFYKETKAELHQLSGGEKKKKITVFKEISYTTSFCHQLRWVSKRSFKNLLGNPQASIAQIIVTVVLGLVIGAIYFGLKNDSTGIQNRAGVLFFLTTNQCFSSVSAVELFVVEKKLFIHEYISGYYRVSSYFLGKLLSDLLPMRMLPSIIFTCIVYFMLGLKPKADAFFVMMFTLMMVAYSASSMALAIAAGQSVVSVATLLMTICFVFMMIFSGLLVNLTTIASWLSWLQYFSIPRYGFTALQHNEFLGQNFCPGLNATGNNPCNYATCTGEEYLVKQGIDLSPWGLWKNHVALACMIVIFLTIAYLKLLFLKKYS
Method: (§1) The competitive inhibition of specific transporters was investigated for RVT-1201 and KAR5417 in transporter-expressing in vitro systems (XT158039). Inhibition of P-gp was evaluated using a Caco-2 cell line with digoxin as probe substrate. Inhibition of OATP1B1 and OATP1B3 was evaluated using a HEK293 cell line expressing these transporters with estradiol-17β-glucuronide as probe substrate. In addition, inhibition of other transporters was also investigated (BCRP, OAT1, OAT3, OCT2, MATE1, MATE2-K). The IC50 estimates for P-gp (RVT-1201) and OATP1B1/3 (RVT-1201 and KAR5417) supported further evaluation of inhibition DDI potential using the PBPK model. For each IC50 estimate, substrate concentration and Km were used to estimate RVT-1201 and KAR5417 Ki with Equation 1 (Cheng and Prusoff, 1973).

MATE2-K = MATE2-K (Homo sapiens, UniProt Q86VL8); test: as above; details: for Potential for interaction? (transporter inhibitor), MATE2-K: predicted @ 600 mg BID
Method: as §1

OAT1 = molecular target: T2, OAT1 (Homo sapiens, UniProt Q4U2R8); test: as above; details: for Potential for interaction? (transporter inhibitor), OAT1: predicted @ 600 mg BID
T2 sequence (Q4U2R8 1-563): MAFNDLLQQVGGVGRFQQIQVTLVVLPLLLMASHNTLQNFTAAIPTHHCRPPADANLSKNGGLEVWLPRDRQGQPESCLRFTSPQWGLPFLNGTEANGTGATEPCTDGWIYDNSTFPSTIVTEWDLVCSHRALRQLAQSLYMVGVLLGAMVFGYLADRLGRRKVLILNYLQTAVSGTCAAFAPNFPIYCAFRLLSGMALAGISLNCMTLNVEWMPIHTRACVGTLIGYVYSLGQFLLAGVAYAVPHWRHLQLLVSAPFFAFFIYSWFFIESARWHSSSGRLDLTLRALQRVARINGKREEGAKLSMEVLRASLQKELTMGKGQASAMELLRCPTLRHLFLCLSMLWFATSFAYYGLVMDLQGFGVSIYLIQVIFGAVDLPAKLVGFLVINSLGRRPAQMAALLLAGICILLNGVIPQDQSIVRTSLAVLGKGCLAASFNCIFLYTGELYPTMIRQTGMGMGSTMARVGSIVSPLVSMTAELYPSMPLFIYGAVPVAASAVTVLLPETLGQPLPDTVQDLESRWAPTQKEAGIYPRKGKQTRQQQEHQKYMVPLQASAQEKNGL
Method: as §1

MATE1 = molecular target: T3, MATE1 (Homo sapiens, UniProt Q96FL8); test: as above; details: for Potential for interaction? (transporter inhibitor), MATE1: predicted @ 600 mg BID
T3 sequence (Q96FL8 1-570): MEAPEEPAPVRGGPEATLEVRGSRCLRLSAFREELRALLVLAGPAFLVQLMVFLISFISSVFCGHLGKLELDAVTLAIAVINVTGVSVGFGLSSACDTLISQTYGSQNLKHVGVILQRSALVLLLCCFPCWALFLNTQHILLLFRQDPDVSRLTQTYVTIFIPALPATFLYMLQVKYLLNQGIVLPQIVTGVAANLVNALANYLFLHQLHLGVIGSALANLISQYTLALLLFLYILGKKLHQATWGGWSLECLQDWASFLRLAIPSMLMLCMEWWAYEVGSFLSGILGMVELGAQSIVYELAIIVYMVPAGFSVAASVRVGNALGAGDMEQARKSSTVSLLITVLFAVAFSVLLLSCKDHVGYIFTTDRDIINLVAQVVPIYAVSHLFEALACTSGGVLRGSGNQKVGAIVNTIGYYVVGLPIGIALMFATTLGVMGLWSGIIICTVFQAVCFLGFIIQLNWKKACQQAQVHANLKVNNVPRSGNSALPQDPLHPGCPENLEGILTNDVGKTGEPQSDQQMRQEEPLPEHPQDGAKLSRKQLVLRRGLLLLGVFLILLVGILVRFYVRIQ
Method: as §1

OCT2 = molecular target: T4, OCT2 (Homo sapiens, UniProt O15244); test: as above; details: for IC50: concentrations of up to 20 μM; for Potential for interaction? (transporter inhibitor), OCT2: predicted @ 600 mg BID
T4 sequence (O15244 1-555): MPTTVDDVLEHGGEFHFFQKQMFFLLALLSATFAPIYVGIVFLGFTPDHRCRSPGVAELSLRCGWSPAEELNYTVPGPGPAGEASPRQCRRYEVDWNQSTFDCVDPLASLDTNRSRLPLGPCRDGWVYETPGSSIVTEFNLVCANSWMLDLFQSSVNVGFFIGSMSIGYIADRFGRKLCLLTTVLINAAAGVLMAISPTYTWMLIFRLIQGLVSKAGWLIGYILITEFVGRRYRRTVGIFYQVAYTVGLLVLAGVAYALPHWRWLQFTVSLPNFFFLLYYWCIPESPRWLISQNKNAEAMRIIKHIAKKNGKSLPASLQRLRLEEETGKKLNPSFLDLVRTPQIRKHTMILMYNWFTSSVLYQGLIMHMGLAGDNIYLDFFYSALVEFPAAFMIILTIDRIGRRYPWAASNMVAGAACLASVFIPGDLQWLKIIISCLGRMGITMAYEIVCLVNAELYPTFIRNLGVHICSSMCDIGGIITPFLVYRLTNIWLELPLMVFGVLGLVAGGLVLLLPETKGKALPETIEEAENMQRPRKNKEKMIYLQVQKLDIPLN
Method: as §1

Sequence of MATE2-K (Q86VL8 1-566 isoform Q86VL8-3): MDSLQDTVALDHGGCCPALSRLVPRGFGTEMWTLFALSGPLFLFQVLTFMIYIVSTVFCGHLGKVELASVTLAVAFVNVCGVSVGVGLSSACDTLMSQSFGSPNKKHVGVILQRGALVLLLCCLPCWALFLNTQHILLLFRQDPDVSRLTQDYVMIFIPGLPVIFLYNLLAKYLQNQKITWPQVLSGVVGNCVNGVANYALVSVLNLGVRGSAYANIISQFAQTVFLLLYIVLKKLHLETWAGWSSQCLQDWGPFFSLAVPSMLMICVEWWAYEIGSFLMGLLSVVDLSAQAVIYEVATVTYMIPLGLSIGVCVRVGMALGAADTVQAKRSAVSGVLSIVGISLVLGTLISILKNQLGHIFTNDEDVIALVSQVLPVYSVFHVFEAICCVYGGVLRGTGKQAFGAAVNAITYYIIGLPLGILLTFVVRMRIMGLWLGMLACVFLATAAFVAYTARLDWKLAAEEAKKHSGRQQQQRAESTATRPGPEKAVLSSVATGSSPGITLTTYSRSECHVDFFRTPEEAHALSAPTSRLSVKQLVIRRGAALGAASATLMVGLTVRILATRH
Sequence of CYP3A4 (P08684 whole entry): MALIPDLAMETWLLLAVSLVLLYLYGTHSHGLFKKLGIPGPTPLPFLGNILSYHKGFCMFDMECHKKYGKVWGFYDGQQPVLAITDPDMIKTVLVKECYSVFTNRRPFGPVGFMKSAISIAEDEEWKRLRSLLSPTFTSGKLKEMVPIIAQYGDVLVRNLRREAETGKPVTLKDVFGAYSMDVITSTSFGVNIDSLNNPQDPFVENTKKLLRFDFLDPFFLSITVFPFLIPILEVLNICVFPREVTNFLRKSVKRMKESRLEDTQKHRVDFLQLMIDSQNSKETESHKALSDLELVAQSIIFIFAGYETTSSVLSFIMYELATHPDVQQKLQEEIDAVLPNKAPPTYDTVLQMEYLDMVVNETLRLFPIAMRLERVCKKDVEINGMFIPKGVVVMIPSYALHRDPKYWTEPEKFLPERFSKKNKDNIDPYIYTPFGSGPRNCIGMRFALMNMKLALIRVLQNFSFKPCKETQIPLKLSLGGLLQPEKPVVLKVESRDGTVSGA

Row | In vitro substrate? CYP3A4 (CYP3A4) | Inhibition of BCRP (in words) (BCRP) | Potential for interaction? (transporter inhibitor), BCRP (BCRP) | Potential for interaction? (transporter inhibitor), MATE2-K (MATE2-K) | Potential for interaction? (transporter inhibitor), OAT1 (OAT1) | Potential for interaction? (transporter inhibitor), MATE1 (MATE1) | IC50 (OCT2) [µM] | Potential for interaction? (transporter inhibitor), OCT2 (OCT2) | Inhibition of MATE2-K (in words) (MATE2-K; up to 30 μM nominal concentration) | inhibition at 30 µM (MATE1; transporter-expressing in vitro system (MATE1), nominal 30 μM) [%] | SMILES | Inhibition of BCRP (in words) (BCRP; listed as rodatristat ethyl) | Inhibition of OAT1 (in words) (OAT1) | Inhibition of BCRP (in words) (BCRP; listed as rodatristat)
1 | No | not an inhibitor | No | No | No | No | > 20 | No | – | – | CCOC(=O)[C@@H]1CC2(CCN(c3cc(O[C@H](c4ccc(Cl)cc4-c4ccccc4)C(F)(F)F)nc(N)n3)CC2)CN1 [Rodatristat ethyl, (S)-ethyl 8-(2-amino-6-((R)-1-(5-chloro-[1,1′-biphenyl]-2-yl)-2,2,2-trifluoroethoxy)pyrimidin-4-yl)-2,8-diazaspiro[4.5]decane-3-carboxylate] | Neither rodatristat ethyl nor rodatristat inhibited | Neither rodatristat ethyl nor rodatristat inhibited | –
2 | No | not an inhibitor | No | No | No | No^a | > 20 | No | did not inhibit | 30 | Nc1nc(O[C@H](c2ccc(Cl)cc2-c2ccccc2)C(F)(F)F)cc(N2CCC3(CC2)CN[C@H](C(=O)O)C3)n1 [Rodatristat, (S)-8-(2-amino-6-((R)-1-(5-chloro-[1,1′-biphenyl]-2-yl)-2,2,2-trifluoroeth-oxy)pyrimidin-4-yl)-2,8-diazaspiro[4.5]decane-3-carboxylic acid] | – | Neither rodatristat ethyl nor rodatristat inhibited | Neither rodatristat ethyl nor rodatristat inhibited
